Consider five compounds from publication PMC2834666, “An enhancer peptide for membrane-disrupting antimicrobial peptides” (BMC Microbiology, 2010).

≈ marks a conversion by molar mass, not a printed value. Bridge positions count the residues as written; N and C are the ends. Square brackets hold non-standard residues; d marks the D form. Peptide text beside a SMILES is read from it. * marks the point of attachment. X1 = CC[C@H](C)CCCCC(=O)*; Dab = NCC[C@H](N)C(=O)O

Common to all, as to type: cell-based
In assay [1] the test system is Serratia marcescens IFO3736. Particulars: absence of NP4P; 10 mM Tris/HCl pH 7.5, 2 h incubation, colony count. As to the method:
(§1) Microbicidal assay was performed as previously described. Briefly, each microbial strain in the mid-exponential phase was suspended in 10 mM Tris/HCl, pH 7.5. The microbial suspension was mixed with antimicrobials in the presence or absense of NP4P. After 2 h incubation, the suspension was diluted 1,000 times and inoculated on to plates of IFO702 medium. The number of colonies were counted, and a plot of peptide concentration vs colony number was created.

In assay [2] the test system is Salmonella typhimurium IFO13245. Particulars: absence of NP4P; 10 mM Tris/HCl pH 7.5, 2 h incubation, colony count. How it is done: as §1
Assay [3] concerns Pseudomonas aeruginosa IFO3899. Particulars: absence of NP4P; 10 mM Tris/HCl pH 7.5, 2 h incubation, colony count. How it is done:
as §1

Assay [4] has as its system Escherichia coli JM109. Particulars: for MBC, NP4P-: absence of NP4P, 10 mM Tris/HCl pH 7.5, 2 h incubation, colony count. How it is done:
Microbicidal assay was performed as previously described. […] The microbial suspension was mixed with antimicrobials in the presence or absense of NP4P. After 2 h incubation, the suspension was diluted 1,000 times and inoculated on to plates of IFO702 medium. The number of colonies were counted, and a plot of peptide concentration vs colony number was created.

For assay [5], the system named is Staphylococcus aureus IFO12732. The experiment in a line: microbe, parasite or virus in culture. Particulars: 10 mM Tris/HCl pH 7.5, 2 h incubation, colony count; for MBC: Staphylococcus aureus, IFO12732. As to the method: as §1

Turning to `CC[C@H](C)CCCCC(=O)N[C@@H](CCN)C(=O)N[C@H](C(=O)N[C@@H](CCN)C(=O)N[C@H]1CCNC(=O)[C@H]([C@@H](C)O)NC(=O)[C@H](CCN)NC(=O)[C@H](CCN)NC(=O)[C@H](CC(C)C)NC(=O)[C@@H](Cc2ccccc2)NC(=O)[C@H](CCN)NC1=O)[C@@H](C)O` [Polymyxin B] (X1-[Dab]T[Dab][Dab][Dab][dF]L[Dab][Dab]T; lactam 4-C (inferred); N-terminus assumed), the “MBC, NP4P-” value stood at 5 µg/mL (≈ 4.15 µM) in assay [1], 5 µg/mL (≈ 4.15 µM) in assay [2], 5 µg/mL (≈ 4.15 µM) in assay [3] and 3 µg/mL (≈ 2.49 µM) in assay [4]. In addition, the “shift of bactericidal dose-effect curve to lower concentration” value in assay [4] (in the presence of 100 μg/mL NP4P, 10 mM Tris-HCl, pH 7.4) is given as about 10 times lower concentration.
Consider `NC[C@H]1O[C@H](O[C@H]2[C@H](O)[C@@H](O[C@H]3O[C@H](CO)[C@@H](O)[C@H](N)[C@H]3O)[C@H](N)C[C@@H]2N)[C@H](O)[C@@H](O)[C@@H]1O` [Kanamycin], for which the “MBC, NP4P-” value in assay [5] (absence of NP4P) turned out to be 3 µg/mL (≈ 6.19 µM). Also, the “MBC, NP4P+” value in assay [5] (presence of 20 μg/mL NP4P) is 3 µg/mL.
As for `CCN1CCN(c2cc3c(cc2F)c(=O)c(C(=O)O)cn3C2CC2)CC1` [Enrofloxacin], the results for the MBC in assay [5] (absence of NP4P) and in assay [5] (presence of 20 μg/mL NP4P) were 0.25 µg/mL (≈ 0.696 µM) and 0.25 µg/mL, respectively.
In the case of `CC[C@H](C)[C@H](N)C(=O)N[C@@H](CC(C)C)C(=O)N1CCC[C@H]1C(=O)N[C@@H](Cc1c[nH]c2ccccc12)C(=O)N[C@@H](CCCCN)C(=O)N[C@@H](Cc1c[nH]c2ccccc12)C(=O)N1CCC[C@H]1C(=O)N[C@@H](Cc1c[nH]c2ccccc12)C(=O)N[C@@H](Cc1c[nH]c2ccccc12)C(=O)N1CCC[C@H]1C(=O)N[C@@H](Cc1c[nH]c2ccccc12)C(=O)N[C@@H](CCCNC(=N)N)C(=O)N[C@@H](CCCNC(=N)N)C(N)=O` [Indolicidin], the “MBC, NP4P-” value in assay [5] (absence of NP4P) and in assay [4] was 10 µg/mL (≈ 5.25 µM) in each case.
Take `CC1(C)S[C@@H]2[C@H](NC(=O)[C@H](N)c3ccccc3)C(=O)N2[C@H]1C(=O)O` [Ampicillin]: the MBC in assay [5] (absence of NP4P) came to 250 µg/mL (≈ 715 µM); in assay [5] (presence of 20 μg/mL NP4P), 250 µg/mL.
